According to PubChem BioAssay AID330 (DTP/NCI, 2004):
Values joined by “and” are separate entries in the source; they are usually repeats but may differ in a detail not shown here. Identical values can stand only once. Inconclusive results and toxic doses are left out.

Test system: P388 leukemia ip, CD2F1 mice, survival T/C
Experiment: NCI In Vivo Anticancer Drug Screen. Data for tumor model P388 Leukemia (intraperitoneal) in CD2F1 (CDF1) mice
Conditions: endpoint: median survival time, higher = longer survival
Outline: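 Mice carrying the transplanted tumor received test compound or vehicle. Survival was recorded in each group, and the value is the treated-group measurement divided by that of the vehicle-treated control group.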

[1] = dose: 50.0 mg/kg/injection, schedule: Q01DX005 (ip), vehicle: saline with Tween-80
[2] = dose: 100.0 mg/kg/injection, schedule: Q01DX005 (ip), vehicle: saline with Tween-80
[3] = dose: 200.0 mg/kg/injection, schedule: Q01DX005 (ip), vehicle: saline with Tween-80
[4] = dose: 60.0 mg/kg/injection, schedule: Q01DX005 (ip), vehicle: saline
[5] = dose: 120.0 mg/kg/injection, schedule: Q01DX005 (ip), vehicle: saline
[6] = dose: 240.0 mg/kg/injection, schedule: Q01DX005 (ip), vehicle: saline
[7] = dose: 50.0 mg/kg/injection, schedule: Q01DX009 (ip), vehicle: saline with Tween-80
[8] = dose: 100.0 mg/kg/injection, schedule: Q01DX009 (ip), vehicle: saline with Tween-80
[9] = dose: 50.0 mg/kg/injection, schedule: Q01DX005 (ip), vehicle: saline
[10] = dose: 100.0 mg/kg/injection, schedule: Q01DX005 (ip), vehicle: saline
[11] = dose: 60.0 mg/kg/injection, schedule: Q01DX005 (ip), vehicle: Klucel (hydroxypropylcellulose) (HPC)
[12] = dose: 120.0 mg/kg/injection, schedule: Q01DX005 (ip), vehicle: Klucel (hydroxypropylcellulose) (HPC)
[13] = dose: 240.0 mg/kg/injection, schedule: Q01DX005 (ip), vehicle: Klucel (hydroxypropylcellulose) (HPC)
[14] = dose: 12.5 mg/kg/injection, schedule: Q01DX005 (ip), vehicle: Klucel (hydroxypropylcellulose) (HPC)
[15] = dose: 25.0 mg/kg/injection, schedule: Q01DX005 (ip), vehicle: Klucel (hydroxypropylcellulose) (HPC)

COc1cccc2c1C(=O)c1c(O)c3c(c(O)c1C2=O)[C@@H](N=[N+]=[N-])[C@@](O)(C(C)=O)C[C@@H]3OC1CC(N)C(O)C(C)O1 (some centres undefined)
T/C (dose: 3.13 mg/kg/injection, schedule: Q04DX003 (ip), vehicle: water): 102 % of control
T/C (dose: 6.25 mg/kg/injection, schedule: Q04DX003 (ip), vehicle: water): 111 % of control
T/C (dose: 12.5 mg/kg/injection, schedule: Q04DX003 (ip), vehicle: water): 117 % of control and 120 % of control
T/C (dose: 25.0 mg/kg/injection, schedule: Q04DX003 (ip), vehicle: water): 122 % of control
T/C (dose: 50.0 mg/kg/injection, schedule: Q04DX003 (ip), vehicle: water): 105 % of control and 120 % of control
T/C (dose: 100.0 mg/kg/injection, schedule: Q04DX003 (ip), vehicle: water): 100 % of control

COc1cccc2c1C(=O)c1c(O)c3c(c(O)c1C2=O)CC(O)(C(C)=O)CC3OC1CC(N=CN(C)C)C(O)C(C)O1 (centres undefined)
T/C (dose: 3.13 mg/kg/injection, schedule: Q04DX003 (ip), vehicle: distilled water + Tween-80): 103 % of control
T/C (dose: 6.25 mg/kg/injection, schedule: Q04DX003 (ip), vehicle: distilled water + Tween-80): 110 % of control
T/C (dose: 12.5 mg/kg/injection, schedule: Q04DX003 (ip), vehicle: distilled water + Tween-80): 99 % of control and 119 % of control
T/C (dose: 50.0 mg/kg/injection, schedule: Q04DX003 (ip), vehicle: distilled water + Tween-80): 123 % of control

O=C1c2ccccc2C(O)(c2ccc(Cl)cc2)c2ccc(Cl)cc21 (centres undefined)
T/C [1]: 95 % of control
T/C [2]: 98 % of control
T/C [3]: 101 % of control

NC1CC1N (centres undefined)
T/C (dose: 6.25 mg/kg/injection, schedule: Q01DX009 (ip), vehicle: saline): 101 % of control
T/C (dose: 12.5 mg/kg/injection, schedule: Q01DX001 (ip), vehicle: saline): 107 % of control
T/C (dose: 12.5 mg/kg/injection, schedule: Q01DX009 (ip), vehicle: saline): 101 % of control
T/C (dose: 25.0 mg/kg/injection, schedule: Q01DX001 (ip), vehicle: saline): 107 % of control
T/C (dose: 25.0 mg/kg/injection, schedule: Q01DX009 (ip), vehicle: saline): 100 % of control
T/C (dose: 50.0 mg/kg/injection, schedule: Q01DX001 (ip), vehicle: saline): 101 % of control

C[N+](C)(C)NP(=O)(N[N+](C)(C)C)c1ccccc1
T/C [4]: 100 % of control
T/C [5]: 106 % of control
T/C [6]: 100 % of control

Nc1nc(N)nc(N2CCCC2)n1
T/C (dose: 25.0 mg/kg/injection, schedule: Q01DX009 (ip), vehicle: saline with Tween-80): 101 % of control
T/C [7]: 97 % of control
T/C [8]: 92 % of control

CC(C)(C)C(=O)Oc1ccc(N=C(N)N)cc1
T/C [9]: 102 % of control
T/C [10]: 104 % of control
T/C (dose: 200.0 mg/kg/injection, schedule: Q01DX005 (ip), vehicle: saline): 105 % of control

CCn1c2ccccc2c2cc(N=C3C(=O)N(C)c4ccccc43)ccc21
T/C [11]: 90 % of control
T/C [12]: 92 % of control
T/C [13]: 90 % of control

COc1cc2c(c(OC)c1OC)-c1ccc(OC)c(=O)cc1[C@@H](N(C)C(=O)C(F)(F)F)CC2
T/C (dose: 1.25 mg/kg/injection, schedule: Q01DX009 (ip), vehicle: Klucel (hydroxypropylcellulose) (HPC)): 154 % of control and 163 % of control

NCCCNCCCCNC(=O)C(O)NC(=O)CC(O)CCCCN=C(N)N (centres undefined)
T/C (dose: 6.25 mg/kg/injection, schedule: Q01DX005 (ip), vehicle: saline): 152 % of control
T/C (dose: 25.0 mg/kg/injection, schedule: Q01DX005 (ip), vehicle: saline): 160 % of control
T/C [9]: 150 % of control and 154 % of control
T/C [10]: 156 % of control and 169 % of control

OC1(c2ccccc2)C2CC1C2 (centres undefined)
T/C (dose: 100.0 mg/kg/injection, schedule: Q04DX002 (ip), vehicle: saline): 104 % of control
T/C (dose: 200.0 mg/kg/injection, schedule: Q04DX002 (ip), vehicle: saline): 101 % of control
T/C (dose: 400.0 mg/kg/injection, schedule: Q04DX002 (ip), vehicle: saline): 102 % of control

CCC1(O)CN2CCc3c([nH]c4ccccc34)C(C(=O)OC)(c3cc4c(cc3OC)N(C)C3C(O)(C(=O)OC)C(OC(C)=O)C5(CC)C=CCN6CCC43C65)CC(C2=O)C1O (centres undefined)
T/C (dose: 25.0 mg/kg/injection, schedule: Q01DX001 (ip), vehicle: distilled water + Tween-80): 107 % of control
T/C (dose: 25.0 mg/kg/injection, schedule: Q01DX001 (ip), vehicle: suspension in saline): 104 % of control
T/C (dose: 50.0 mg/kg/injection, schedule: Q01DX001 (ip), vehicle: suspension in saline): 110 % of control
T/C (dose: 100.0 mg/kg/injection, schedule: Q01DX001 (ip), vehicle: suspension in saline): 120 % of control
T/C (dose: 200.0 mg/kg/injection, schedule: Q01DX001 (ip), vehicle: distilled water + Tween-80): 154 % of control

Cc1cc(=O)oc2cc(OC(=O)Nc3ccc(Cl)cc3C(F)(F)F)ccc12
T/C (dose: 60.0 mg/kg/injection, schedule: Q01DX005 (ip), vehicle: saline with Tween-80): 90 % of control
T/C (dose: 120.0 mg/kg/injection, schedule: Q01DX005 (ip), vehicle: saline with Tween-80): 95 % of control

CCn1cc(C(=O)O)c(=O)c2cc3c(cc21)OCO3
T/C [11]: 100 % of control
T/C [12]: 103 % of control
T/C [13]: 100 % of control

CSc1nc(Cl)cc(=O)n1C
T/C (dose: 6.25 mg/kg/injection, schedule: Q01DX005 (ip), vehicle: Klucel (hydroxypropylcellulose) (HPC)): 104 % of control
T/C [14]: 105 % of control
T/C [15]: 100 % of control and 92 % of control

COC1OC(CO)C(O)C2OCCOCCOC3C(OC)OC(CO)C(O)C3OCCOCCOC12 (centres undefined)
T/C [4]: 103 % of control
T/C [5]: 101 % of control
T/C [6]: 97 % of control

O=C(c1ccccc1)C1C(=O)c2ccccc2C1=O
T/C [4]: 95 % of control
T/C [5]: 99 % of control
T/C [6]: 95 % of control

O=c1c(N=Nc2ccc(Br)cc2)c(O)n(-c2ccccc2Cl)c(=S)n1-c1ccccc1
T/C (dose: 50.0 mg/kg/injection, schedule: Q01DX001 (ip), vehicle: Klucel (hydroxypropylcellulose) (HPC)): 94 % of control
T/C (dose: 100.0 mg/kg/injection, schedule: Q01DX001 (ip), vehicle: Klucel (hydroxypropylcellulose) (HPC)): 98 % of control
T/C (dose: 200.0 mg/kg/injection, schedule: Q01DX001 (ip), vehicle: Klucel (hydroxypropylcellulose) (HPC)): 94 % of control

Cc1[nH]cc2c1C(c1ccccc1F)=NCC(=O)N2
T/C (dose: 100.0 mg/kg/injection, schedule: Q04DX003 (ip), vehicle: saline with Tween-80): 101 % of control
T/C (dose: 200.0 mg/kg/injection, schedule: Q04DX003 (ip), vehicle: saline with Tween-80): 100 % of control
T/C (dose: 400.0 mg/kg/injection, schedule: Q04DX003 (ip), vehicle: saline with Tween-80): 101 % of control

Nc1nnc2nc(C(C(=O)c3ccc(F)cc3)c3nc4nnc(N)n4[nH]c3=O)c(=O)[nH]n12
T/C [1]: 98 % of control
T/C [2]: 92 % of control
T/C [3]: 91 % of control

CN(CCO)C1CC(C)(C)N(O)C(C)(C)C1
T/C [4]: 96 % of control
T/C [5]: 100 % of control
T/C [6]: 100 % of control

CCC(=O)C1(C)OC1C(C)CC(C)C1OC(=O)CC2(O)CC=C(C)C(O2)/C(C)=C/CCCC(OC2CC(OC(N)=O)C(O)C(C)O2)/C=C/C(C)C(O)C1C (centres undefined)
T/C (dose: 6.2 mg/kg/injection, schedule: Q01DX005 (ip), vehicle: Klucel (hydroxypropylcellulose) (HPC)): 109 % of control
T/C [14]: 98 % of control
T/C [15]: 103 % of control
T/C (dose: 50.0 mg/kg/injection, schedule: Q01DX005 (ip), vehicle: Klucel (hydroxypropylcellulose) (HPC)): 108 % of control

ClC1(Cl)C2CCCCC21 (centres undefined)
T/C [7]: 100 % of control
T/C [8]: 90 % of control

COc1cc(C=Nc2cccc3c2NCCC3)cc(OC)c1OC
T/C (dose: 100.0 mg/kg/injection, schedule: Q01DX001 (ip), vehicle: saline with Tween-80): 105 % of control
T/C (dose: 200.0 mg/kg/injection, schedule: Q01DX001 (ip), vehicle: saline with Tween-80): 98 % of control
T/C (dose: 400.0 mg/kg/injection, schedule: Q01DX001 (ip), vehicle: saline with Tween-80): 98 % of control
